# Experimental data reported in US20080311126A1, “Antisense Oligonucleotides Directed to Ribonucleotide Reducatase R2 and Uses Thereof in Combination Therapies for the Treatment of Cancer” (Genesense Technologies, Inc, priority 2004, published 2008).
# Oligonucleotides are written 5' to 3', each unit as a sugar letter and its base; * is a phosphorothioate linkage, no mark a phosphodiester; rarer units and linkages stand in square brackets, end groups in braces. Plain capitals give the bases only. d = 2'-deoxy (DNA)
# Legend:
# Experiment in all cases: Relative colony forming efficiency (Example 17, Table 13)
# Format in all cases: cell-based, human
# [1] = tested on: MDA-MB-231 breast cell adenocarcinoma; details: averages of 2-8 determinations
# Method: (§1) Colony forming efficiency was determined using standard protocols. […] The test oligonucleotides were added to cell cultures in the presence of 2.5 μg of DOTMA/DOPE (Lipofectin; Life Technologies, Inc.) for four hours. The oligonucleotide was tested at 0.2 μM unless otherwise indicated. Controls were the cultures treated with lipofectin but without the oligonucleotide. […] Surviving cells were visualized by methylene blue staining, and colonies were scored. In some experiments cell aliquots were removed from the culture and viability was determined using the trypan blue exclusion test. Results were analyzed as percent of surviving cells compared to control cells. To test the antisense effects of many of these sequences as phosphorthioate deoxyribonucleotides, they were examined in relative colony forming experiments conducted as described in Example 16 with a series of human tumour cell lines. The results (shown as % inhibition of colony forming ability) obtained with cancer cells derived from the bladder, breast, lung, colon, pancreas, prostate, liver and cervix, are shown in Table 13. The specific cell lines employed are as follows: […]
# [2] = tested on: PC-3 prostrate cell adenocarcinoma; details: averages of 2-8 determinations
# Method: as §1
# A549 lung cell carcinoma = details: averages of 2-8 determinations
# Method: as §1
# [3] = tested on: MDA PaCa-2 pancreatic cell carcinoma; details: MIA PaCa-2 pancreatic cell carcinoma; averages of 2-8 determinations
# Method: as §1
# [4] = tested on: T24 bladder cell carcinoma; details: averages of 2-8 determinations
# Method: as §1
# [5] = tested on: HCT116 colon cell carcinoma; details: averages of 2-8 determinations
# Method: as §1
# [6] = tested on: HepG2 hepatocellular carcinoma; details: averages of 2-8 determinations
# Method: as §1
Sequence,"Reduced relative colony forming efficiency, MDA-MB-231 (% inhibition of colony forming ability) [1] [%]","Reduced relative colony forming efficiency, PC-3 (% inhibition of colony forming ability) [2] [%]","Reduced relative colony forming efficiency, A549 (% inhibition of colony forming ability) (A549 lung cell carcinoma) [%]","Reduced relative colony forming efficiency, MIA PaCa-2 (% inhibition of colony forming ability) [3] [%]","Reduced relative colony forming efficiency, T24 (% inhibition of colony forming ability) [4] [%]","Reduced relative colony forming efficiency, HCT116 (% inhibition of colony forming ability) [5] [%]","Reduced relative colony forming efficiency, HepG2 (% inhibition of colony forming ability) [6] [%]"
TGGCACCAACTGACTAATAT (antisense dT*dG*dG*dC*dA*dC*dC*dA*dA*dC*dT*dG*dA*dC*dT*dA*dA*dT*dA*dT) [AS-II-1976-20],89.6,88.16,–,–,–,–,–
AAACGGCTTCTCACACATAT (antisense dA*dA*dA*dC*dG*dG*dC*dT*dT*dC*dT*dC*dA*dC*dA*dC*dA*dT*dA*dT) [AS-II-2151-20],95.14,84.86,79.19,62.15,79.83,–,–
AACCGGAAAAGAAAATGCCT (antisense dA*dA*dC*dC*dG*dG*dA*dA*dA*dA*dG*dA*dA*dA*dA*dT*dG*dC*dC*dT) [AS-II-890-20],88.2,87.93,81.6,66.02,82.07,–,–
CGGGTCCGTGATGGGCGCGA (antisense dC*dG*dG*dG*dT*dC*dC*dG*dT*dG*dA*dT*dG*dG*dG*dC*dG*dC*dG*dA) [AS-II-217-20],52.7,87.41,–,87.38,65.02,61.85,99.55
TGCCTCCGACCCTTCCCATT (antisense dT*dG*dC*dC*dT*dC*dC*dG*dA*dC*dC*dC*dT*dT*dC*dC*dC*dA*dT*dT) [AS-II-14-20],91.24,92.76,–,47.93,77.59,–,88.4
TATCGCCGCCGTGAGTACAA (antisense dT*dA*dT*dC*dG*dC*dC*dG*dC*dC*dG*dT*dG*dA*dG*dT*dA*dC*dA*dA) [AS-II-1768-20],91.56,86.36,86.8,60.36,74.56,–,–
TTCATGGTGTGGCTAGTTGG (antisense dT*dT*dC*dA*dT*dG*dG*dT*dG*dT*dG*dG*dC*dT*dA*dG*dT*dT*dG*dG) [AS-II-1438-20],69.06,83.96,51.27,42.13,43.7,–,–
GGCCCAGATCACCCCTAAAT (antisense dG*dG*dC*dC*dC*dA*dG*dA*dT*dC*dA*dC*dC*dC*dC*dT*dA*dA*dA*dT) [AS-II-2128-20],91.3,88.89,87.31,39.23,83.74,–,–
GACATCACTCCCATCCTCTG (antisense dG*dA*dC*dA*dT*dC*dA*dC*dT*dC*dC*dC*dA*dT*dC*dC*dT*dC*dT*dG) [AS-II-1302-20],92.2,79.01,93.17,23.86,70.56,71.98,–
TGGCTGTGCTGGTTAAAGGA (antisense dT*dG*dG*dC*dT*dG*dT*dG*dC*dT*dG*dG*dT*dT*dA*dA*dA*dG*dG*dA) [AS-II-1659-20],42.86,81.56,54.7,42.54,74.09,–,–
ACCCTTCCCATTGGCTGCGC (antisense dA*dC*dC*dC*dT*dT*dC*dC*dC*dA*dT*dT*dG*dG*dC*dT*dG*dC*dG*dC) [AS-II-6-20],85.4,59.21,–,95.15,73.55,–,97.89
TTTTAACTGGCTGTGCTGGT (antisense dT*dT*dT*dT*dA*dA*dC*dT*dG*dG*dC*dT*dG*dT*dG*dC*dT*dG*dG*dT) [AS-II-1666-20],26.71,86.06,54.82,49.72,71.71,–,–
CACACAACCTACTTACACCA (antisense dC*dA*dC*dA*dC*dA*dA*dC*dC*dT*dA*dC*dT*dT*dA*dC*dA*dC*dC*dA) [AS-II-2372-20],90.09,86.06,96.41,94.36,61.13,64.7,–
GGGCACATCTTCAGTTCATT (antisense dG*dG*dG*dC*dA*dC*dA*dT*dC*dT*dT*dC*dA*dG*dT*dT*dC*dA*dT*dT) [AS-II-1364-20],93.87,79.01,95.59,59.34,66.59,77.29,–
ATTAAAATCTGCGTTGAAGC (antisense dA*dT*dT*dA*dA*dA*dA*dT*dC*dT*dG*dC*dG*dT*dT*dG*dA*dA*dG*dC) [AS-II-1700-20],30.75,90.63,77.28,34.52,70.94,–,–
TTAGTGGTCAGGAGAATGTA (antisense dT*dT*dA*dG*dT*dG*dG*dT*dC*dA*dG*dG*dA*dG*dA*dA*dT*dG*dT*dA) [AS-II-1819-20],90.68,85.46,–,20.02,53.74,–,83.89
CAGAATATCGACGCAAAAGA (dC*dA*dG*dA*dA*dT*dA*dT*dC*dG*dA*dC*dG*dC*dA*dA*dA*dA*dG*dA) [AS-II-909-20],45.96,84.86,78.68,46.13,78.57,–,–
TCGCCTACTCTCTTCTCAAA (antisense dT*dC*dG*dC*dC*dT*dA*dC*dT*dC*dT*dC*dT*dT*dC*dT*dC*dA*dA*dA) [AS-II-1278-20],90.68,85.31,–,57.05,65.42,–,–
